Measured values taken from patent US11401286B2 (Tetra Discovery Partners, LLC, priority 2012, dated 2022).
Where a name gives a salt, the structure may show the parent alone. Read-outs that look alike come from different tables or passages of the source. One block for each compound: values may come before it.

Target: PDE4D7 (Homo sapiens (Human), UniProt Q08499)
Conditions: read-out: PDE4D7 IC50

PDE4D7, sequence (Q08499 other isoform, or with tags, fused parts or gaps): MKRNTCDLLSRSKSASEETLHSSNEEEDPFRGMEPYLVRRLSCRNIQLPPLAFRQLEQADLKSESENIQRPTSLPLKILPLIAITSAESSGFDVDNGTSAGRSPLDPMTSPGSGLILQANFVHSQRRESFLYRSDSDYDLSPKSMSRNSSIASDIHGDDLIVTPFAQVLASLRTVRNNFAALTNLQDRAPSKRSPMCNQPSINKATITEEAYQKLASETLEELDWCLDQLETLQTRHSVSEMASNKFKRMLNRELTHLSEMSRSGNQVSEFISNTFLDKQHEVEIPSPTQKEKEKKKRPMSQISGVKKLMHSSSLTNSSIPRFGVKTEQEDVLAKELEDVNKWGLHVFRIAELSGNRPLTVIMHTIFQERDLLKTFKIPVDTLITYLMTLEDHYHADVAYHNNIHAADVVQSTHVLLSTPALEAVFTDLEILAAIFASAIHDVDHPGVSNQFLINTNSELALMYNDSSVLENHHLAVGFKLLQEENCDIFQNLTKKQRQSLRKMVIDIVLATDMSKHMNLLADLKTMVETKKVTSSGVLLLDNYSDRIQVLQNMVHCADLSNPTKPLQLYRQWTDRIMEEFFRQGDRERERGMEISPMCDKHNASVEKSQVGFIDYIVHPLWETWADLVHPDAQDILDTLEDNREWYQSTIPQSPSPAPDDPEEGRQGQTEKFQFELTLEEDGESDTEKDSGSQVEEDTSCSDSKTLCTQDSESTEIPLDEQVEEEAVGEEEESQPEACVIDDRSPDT

Compound: NC(=O)Cc1ccc(Nc2cc(-c3ccc(Cl)s3)nc3c2CCC3)cc1 [Example 245, 2-(4-((2-(5-Chlorothiophen-2-yl)-6,7-dihydro-5H-cyclopenta[b]pyridin-4-yl)amino)phenyl)acetamide hydrochloride]
IC50 (PDE4D7 without asterisk): > 1000 nM

Compound: NC(=O)Cc1ccc(Nc2cc(C3=CCCC3)nc3c2CCC3)cc1 [Example 246, 2-(4-((2-(Cyclopent-1-en-1-yl)-6,7-dihydro-5H-cyclopenta[b]pyridin-4-yl)amino)phenyl)acetamide hydrochloride]
IC50 (PDE4D7 without asterisk): > 1000 nM

Compound: OCCc1ccc(Nc2cc(C3=CCCC3)nc3c2CCC3)cc1 [Example 248, 2-(4-((2-(Cyclopent-1-en-1-yl)-6,7-dihydro-5H-cyclopenta[b]pyridin-4-yl)amino)phenyl)ethanol hydrochloride]
IC50 (PDE4D7 without asterisk): > 1000 nM

Compound: OCCc1ccc(Nc2cc(C3CCCC3)nc3c2CCC3)cc1 [Example 249, 2-(4-((2-cyclopentyl-6,7-dihydro-5H-cyclopenta[b]pyridin-4-yl)amino)phenyl)ethanol hydrochloride]
IC50 (PDE4D7 without asterisk): > 1000 nM

Compound: NC(=O)Cc1ccc(Nc2cc(C3CCCCC3)nc3c2CCC3)cc1 [Example 250, 2-(4-((2-Cyclohexyl-6,7-dihydro-5H-cyclopenta[b]pyridin-4-yl)amino)phenyl)acetamide hydrochloride]
IC50 (PDE4D7 without asterisk): > 1000 nM

Compound: OCCc1ccc(Nc2cc(C3CCCCC3)nc3c2CCC3)cc1 [Example 251, 2-(4-((2-cyclohexyl-6,7-dihydro-5H-cyclopenta[b]pyridin-4-yl)amino)phenyl)ethanol hydrochloride]
IC50 (PDE4D7 without asterisk): > 1000 nM

Compound: CN1CCN(c2cc(Nc3ccc(CC(N)=O)cc3)c3c(n2)CCC3)CC1 [Example 253, 2-(4-((2-(4-methylpiperazin-1-yl)-6,7-dihydro-5H-cyclopenta[b]pyridin-4-yl)amino)phenyl)acetamide hydrochloride]
IC50: > 1000 nM

Compound: C[C@@H]1CN(c2cc(Nc3ccc(CC(N)=O)cc3)c3c(n2)CCC3)CCN1 [Example 255, (R)-2-(4-((2-(3-Methylpiperazin-1-yl)-6,7-dihydro-5H-cyclopenta[b]pyridin-4-yl)amino)phenyl)acetamide hydrochloride]
IC50: > 1000 nM

Compound: NC(=O)Cc1ccc(Nc2cc(OC3CCCC3)nc3c2CCC3)cc1 [Example 256, 2-(4-((2-(Cyclopentyloxy)-6,7-dihydro-5H-cyclopenta[b]pyridin-4-yl)amino)phenyl)acetamide hydrochloride]
IC50 (PDE4D7 without asterisk): > 1000 nM

Compound: OCCc1ccc(Nc2cc(OC3CCCC3)nc3c2CCC3)cc1 [Example 257, 2-(4-((2-(Cyclopentyloxy)-6,7-dihydro-5H-cyclopenta[b]pyridin-4-yl)amino)phenyl)ethanol hydrochloride]
IC50 (PDE4D7 without asterisk): > 1000 nM

Compound: NC(=O)Cc1ccc(Nc2cc(SC3CCCC3)nc3c2CCC3)cc1 [Example 258, 2-(4-((2-(Cyclopentylthio)-6,7-dihydro-5H-cyclopenta[b]pyridin-4-yl)amino)phenyl)acetamide]
IC50 (PDE4D7 without asterisk): > 1000 nM

Compound: NC(=O)Cc1ccc(Nc2cc(S(=O)(=O)C3CCCC3)nc3c2CCC3)cc1 [Example 259, 2-(4-((2-(Cyclopentylsulfonyl)-6,7-dihydro-5H-cyclopenta[b]pyridin-4-yl)amino)phenyl)acetamide]
IC50 (PDE4D7 without asterisk): > 1000 nM

Compound: CC(C)Oc1cc(Nc2ccc(CCO)cc2)c2c(n1)CCC2 [Example 260, 2-(4-((2-Isopropoxy-6,7-dihydro-5H-cyclopenta[b]pyridin-4-yl)amino)phenyl)ethanol hydrochloride]
IC50 (PDE4D7 without asterisk): > 1000 nM

Compound: CC(C)Oc1cc(Nc2ccc(CC(N)=O)cc2)c2c(n1)CCC2 [Example 261, 2-(4-((2-Isopropoxy-6,7-dihydro-5H-cyclopenta[b]pyridin-4-yl)amino)phenyl)acetamide hydrochloride]
IC50 (PDE4D7 without asterisk): > 1000 nM

Compound: NC(=O)Cc1ccc(C(O)c2cc(-c3cccc(Cl)c3)nc3c2CCC3)cc1 (centres unmarked) [Example 262, 2-(4-((2-(3-Chlorophenyl)-6,7-dihydro-5H-cyclopenta[b]pyridin-4-yl)(hydroxy)methyl)phenyl)acetamide hydrochloride]
IC50 (PDE4D7 without asterisk): > 1000 nM

Compound: OCCc1ccc(C(O)c2cc(-c3cccc(Cl)c3)nc3c2CCC3)cc1 (centres unmarked) [Example 263, 2-(4-((2-(3-Chlorophenyl)-6,7-dihydro-5H-cyclopenta[b]pyridin-4-yl)(hydroxy)methyl)phenyl)ethanol]
IC50 (PDE4D7 without asterisk): > 1000 nM

Compound: OCCCc1cccc(-c2cc(-c3cccc(Cl)c3)nc3c2CCC3)c1 [Example 266, 3-(3-(2-(3-chlorophenyl)-6,7-dihydro-5H-cyclopenta[b]pyridin-4-yl)phenyl)propan-1-ol hydrochloride]
IC50 (PDE4D7 without asterisk): > 1000 nM

Compound: NC(=O)Cc1ccc(S(=O)(=O)c2cc(-c3cccc(Cl)c3)nc3c2CCC3)cc1 [Example 267, 2-(4-((2-(3-chlorophenyl)-6,7-dihydro-5H-cyclopenta[b]pyridin-4-yl)sulfonyl)phenyl)acetamide]
IC50: > 1000 nM

Compound: CCCNC(=O)Cc1ccc(Nc2nc(-c3cccc(Cl)c3)nc3c2S(=O)(=O)CCC3)cc1 [Example 276, 2-(4-((2-(3-Chlorophenyl)-5,5-dioxido-7,8-dihydro-6H-thiopyrano[3,2-d]pyrimidin-4-yl)amino)phenyl)-N-propylacetamide]
IC50 (PDE4D7 without asterisk): > 1000 nM

Compound: NC(=O)Cc1ccc(Nc2nc(-c3cccc(Cl)c3)nc3c2S(=O)(=O)CC3)cc1 [Example 282, 2-(4-((2-(3-chlorophenyl)-5,5-dioxido-6,7-dihydrothieno[3,2-d]pyrimidin-4-yl)amino)phenyl)acetamide]
IC50 (PDE4D7 without asterisk): > 1000 nM

Further lines, results first:

IC50 (PDE4D7 without asterisk): > 1000 nM
Compound: OCCc1ccc(Nc2cc(-c3ccsc3)nc3c2CCC3)cc1 [Example 243, 2 2-(4-((2-(Thiophen-3-yl)-6,7-dihydro-5H-cyclopenta[b]pyridin-4-yl)amino)phenyl)ethanol]

IC50 (PDE4D7 without asterisk): > 1000 nM
Compound: NC(=O)Cc1ccc(Nc2cc(-c3ccsc3)nc3c2CCC3)cc1 [Example 244, 2-(4-((2-(Thiophen-3-yl)-6,7-dihydro-5H-cyclopenta[b]pyridin-4-yl)amino)phenyl)acetamide]

IC50 (PDE4D7 without asterisk): < 1000 nM
Compound: CCc1nc(Nc2ccc(CCO)cc2)cc(-c2cccc(Cl)c2)n1 [Example 264, 2-(4-((6-(3-Chlorophenyl)-2-ethylpyrimidin-4-yl)amino)phenyl)ethanol]

IC50 (PDE4D7 without asterisk): < 1000 nM
Compound: CCc1nc(Nc2ccc(CC(N)=O)cc2)cc(-c2cccc(Cl)c2)n1 [Example 265, 2-(4-((6-(3-chlorophenyl)-2-ethylpyrimidin-4-yl)amino)phenyl)acetamide]

IC50 (PDE4D7 without asterisk): < 1000 nM
Compound: O=S1(=O)CCCc2nc(-c3ccccc3)nc(Nc3ccc(CCO)cc3)c21 [Example 268, 4-((4-(2-hydroxyethyl)phenyl)amino)-2-phenyl-7,8-dihydro-6H-thiopyrano[3,2-d]pyrimidine 5,5-dioxide]

IC50 (PDE4D7 without asterisk): < 1000 nM
Compound: NC(=O)Cc1ccc(Nc2nc(-c3ccccc3)nc3c2S(=O)(=O)CCC3)cc1 [Example 269, 2-(4-((5,5-dioxido-2-phenyl-7,8-dihydro-6H-thiopyrano[3,2-d]pyrimidin-4-yl)amino)phenyl)acetamide]

IC50 (PDE4D7 without asterisk): < 1000 nM
Compound: CCCNC(=O)Cc1ccc(Nc2nc(-c3ccccc3)nc3c2S(=O)(=O)CCC3)cc1 [Example 270, 2-(4-((5,5-dioxido-2-phenyl-7,8-dihydro-6H-thiopyrano[3,2-d]pyrimidin-4-yl)amino)phenyl)-N-propylacetamide]

IC50 (PDE4D7 without asterisk): < 1000 nM
Compound: NC(=O)Cc1ccc(Nc2nc(-c3cccc(Cl)c3)nc3c2SCCC3)cc1 [Example 271, 2-(4-((2-(3-chlorophenyl)-7,8-dihydro-6H-thiopyrano[3,2-d]pyrimidin-4-yl)amino)phenyl)acetamide]

IC50 (PDE4D7 without asterisk): < 1000 nM
Compound: OCCc1ccc(Nc2nc(-c3cccc(Cl)c3)nc3c2SCCC3)cc1 [Example 272, 2-(4-((2-(3-chlorophenyl)-7,8-dihydro-6H-thiopyrano[3,2-d]pyrimidin-4-yl)amino)phenyl)ethanol]

IC50 (PDE4D7 without asterisk): < 1000 nM
Compound: O=S1(=O)CCCc2nc(-c3cccc(Cl)c3)nc(Nc3ccc(CCO)cc3)c21 [Example 273, 2-(3-Chlorophenyl)-4-((4-(2-hydroxyethyl)phenyl)amino)-7,8-dihydro-6H-thiopyrano[3,2-d]pyrimidine 5,5-dioxide]

IC50 (PDE4D7 without asterisk): < 1000 nM
Compound: NC(=O)Cc1ccc(Nc2nc(-c3cccc(Cl)c3)nc3c2S(=O)(=O)CCC3)cc1 [Example 274, 2-(4-((2-(3-chlorophenyl)-5,5-dioxido-7,8-dihydro-6H-thiopyrano[3,2-d]pyrimidin-4-yl)amino)phenyl)acetamide]

IC50 (PDE4D7 without asterisk): < 1000 nM
Compound: O=C(O)Cc1ccc(Nc2nc(-c3cccc(Cl)c3)nc3c2S(=O)(=O)CCC3)cc1 [Example 275, 2-(4-((2-(3-chlorophenyl)-5,5-dioxido-7,8-dihydro-6H-thiopyrano[3,2-d]pyrimidin-4-yl)amino)phenyl)acetic acid]

IC50 (PDE4D7 without asterisk): < 1000 nM
Compound: NC(=O)Cc1ccc(Cc2nc(-c3cccc(Cl)c3)nc3c2S(=O)(=O)CCC3)cc1 [Example 277, 2-(4-((2-(3-Chlorophenyl)-5,5-dioxido-7,8-dihydro-6H-thiopyrano[3,2-d]pyrimidin-4-yl)methyl)phenyl)acetamide]

IC50 (PDE4D7 without asterisk): < 1000 nM
Compound: O=S1(=O)CCCc2nc(-c3cccc(Cl)c3)nc(Cc3ccc(CCO)cc3)c21 [Example 278, 2-(3-chlorophenyl)-4-(4-(2-hydroxyethyl)benzyl)-7,8-dihydro-6H-thiopyrano[3,2-d]pyrimidine 5,5-dioxide]

IC50 (PDE4D7 without asterisk): < 1000 nM
Compound: OCCc1ccc(Nc2nc(-c3cccc(Cl)c3)nc3c2SCC3)cc1 [Example 279, 2-(4-((2-(3-Chlorophenyl)-6,7-dihydrothieno[3,2-d]pyrimidin-4-yl)amino)phenyl)ethanol]

IC50 (PDE4D7 without asterisk): < 1000 nM
Compound: NC(=O)Cc1ccc(Nc2nc(-c3cccc(Cl)c3)nc3c2SCC3)cc1 [Example 280, 2-(4-((2-(3-chlorophenyl)-6,7-dihydrothieno[3,2-d]pyrimidin-4-yl)amino)phenyl)acetamide]

IC50 (PDE4D7 without asterisk): < 1000 nM
Compound: O=S1(=O)CCc2nc(-c3cccc(Cl)c3)nc(Nc3ccc(CCO)cc3)c21 [Example 281, 2-(3-Chlorophenyl)-4-((4-(2-hydroxyethyl)phenyl)amino)-6,7-dihydrothieno[3,2-d]pyrimidine 5,5-dioxide]

IC50 (PDE4D7 without asterisk): < 1000 nM
Compound: OCCc1ccc(Nc2nc(C3CCCC3)nc3c2SCCC3)cc1 [Example 283, 2-(4-((2-Cyclopentyl-7,8-dihydro-6H-thiopyrano[3,2-d]pyrimidin-4-yl)amino)phenyl)ethanol]
